Reference: ChEMBL document CHEMBL5543073, “Synthesis, biological activity evaluation and mechanism analysis of new ganglioside GM3 derivatives as potential agents for nervous functional recovery” (Eur J Med Chem, 2024)
The source made the active and inactive calls. The calls are words filed in the database; no cut-off is given here.

Assays:
[1] = system: Neuron; experiment: Induction of neurite growth in mouse primary neurons assessed as increase in MAP2 level incubated for 48 hrs in presence of NGF by Western blot analysis; type: functional, cell-based
[2] = system: N2a; experiment: Downregulation of Wnt7b level in mouse Neuro2a cells at 50 uM incubated for 48 hrs by Western blot analysis; type: functional, cell-based
[3] = system: A-431; experiment: Effect on Rac2 gene expression in human A-431 cells by RNA-Seq analysis; type: functional, cell-based
[4] = system: SH-SY5Y; experiment: Neuroprotective effect against MPP+-induced cytotoxicity in human SH-SY5Y cells assessed as increase in cell viability at 50 uM incubated for 24 hrs followed by MPP+ addition measured after 4 hrs by CCK8 assay relative to control; type: functional; conditions: time 28 hrs
[5] = system: PC-12; experiment: Cytotoxicity against rat PC12 cells assessed as inhibition of cell viability incubated for 48 hrs by CCK8 assay; type: functional, cell-based; conditions: PC-12, 48 h
[6] = Clearance in C57BL/6 mouse at 10 mg/kg, iv measured for 24 hrs; type: ADME, organism-based; conditions: in vivo
[7] = system: A-431; experiment: Effect on Wnt7b gene expression in human A-431 cells by RNA-Seq analysis; type: functional, cell-based
[8] = system: U-87 MG; experiment: Cytotoxicity against human U-87 MG cells assessed as inhibition of cell viability incubated for 48 hrs by CCK8 assay; type: functional, cell-based, U-87MG ATCC
[9] = system: N2a; experiment: Effect on […] level in mouse Neuro2a cells at 50 uM incubated for 48 hrs by Western blot analysis; type: functional, cell-based
[10] = system: Neuron; experiment: Induction of neurite growth in mouse primary neurons at 50 uM incubated for 48 hrs in presence of NGF by imaging analysis; type: functional, cell-based
[11] = Half life in C57BL/6 mouse at 10 mg/kg, iv measured for 24 hrs; type: ADME, organism-based; conditions: in vivo
[12] = system: N2a; experiment: Cytotoxicity against mouse Neuro2a cells assessed as inhibition of cell viability incubated for 48 hrs by CCK8 assay; type: functional, cell-based
[13] = system: Neuron; experiment: Induction of neurite growth in mouse primary neurons assessed as increase in neurite length at 50 uM incubated for 48 hrs by imaging analysis; type: functional, cell-based
[14] = system: N2a; experiment: Induction of cell proliferation in mouse Neuro2a cells at 50 uM incubated for 48 hrs by CCK8 assay; type: functional, cell-based
[15] = system: SH-SY5Y; experiment: Cytotoxicity against human SH-SY5Y cells assessed as inhibition of cell viability incubated for 48 hrs by CCK8 assay; type: functional, cell-based

| SMILES | Activity [1] | Activity [2] | Activity [3] | Activity [4] | IC50 [5] | CL [6] | Activity [7] | IC50 [8] | Activity [9] | Activity [10] | half-life [11] | IC50 [12] | Activity [13] | Activity [14] | IC50 [15] |
| --- | --- | --- | --- | --- | --- | --- | --- | --- | --- | --- | --- | --- | --- | --- | --- |
| CCCCCCCCCCCCC/C=C/[C@@H](O)[C@H](CO[C@@H]1O[C@H](CO)[C@@H](O[C@@H]2O[C@H](CO)[C@H](O)[C@H](O[C@]3(C(=O)O)C[C@H](O)[C@@H](NC(=O)Cc4cccc([N+](=O)[O-])c4)C([C@@H](O)[C@H](O)CO)O3)[C@H]2O)[C@H](O)[C@H]1O)NC(=O)CCCCCCCCCCCCCCCCC (some centres not stated) | Active | Active | Active | 18.8% | > 200 µM | 0.467 µL/min/mg | Active | > 200 µM | inactive | Active | 49.3 h | > 200 µM | Active | Active | > 200 µM |
| CCCCCCCCCCCCC/C=C/[C@@H](O)[C@H](CO[C@@H]1O[C@H](CO)[C@@H](O[C@@H]2O[C@H](CO)[C@H](O)[C@H](O[C@]3(C(=O)O)C[C@H](O)[C@@H](NC(=O)c4cc(C)cc(C)c4)C([C@@H](O)[C@H](O)CO)O3)[C@H]2O)[C@H](O)[C@H]1O)NC(=O)CCCCCCCCCCCCCCCCC (some centres not stated) | – | – | – | – | > 200 µM | – | – | > 200 µM | – | – | – | > 200 µM | – | – | > 200 µM |
| CCCCCCCCCCCCC/C=C/[C@@H](O)[C@H](CO[C@@H]1O[C@H](CO)[C@@H](O[C@@H]2O[C@H](CO)[C@H](O)[C@H](O[C@]3(C(=O)O)C[C@H](O)[C@@H](NC(=O)c4cccc([N+](=O)[O-])c4)C([C@@H](O)[C@H](O)CO)O3)[C@H]2O)[C@H](O)[C@H]1O)NC(=O)CCCCCCCCCCCCCCCCC (some centres not stated) | – | – | – | 9.3% | > 200 µM | – | – | > 200 µM | – | – | – | > 200 µM | – | Active | > 200 µM |
| CCCCCCCCCCCCC/C=C/[C@@H](O)[C@H](CO[C@@H]1O[C@H](CO)[C@@H](O[C@@H]2O[C@H](CO)[C@H](O)[C@H](O[C@]3(C(=O)O)C[C@H](O)[C@@H](NC(=O)c4ccncc4)C([C@@H](O)[C@H](O)CO)O3)[C@H]2O)[C@H](O)[C@H]1O)NC(=O)CCCCCCCCCCCCCCCCC (some centres not stated) | – | – | – | – | > 200 µM | – | – | > 200 µM | – | – | – | > 200 µM | – | – | > 200 µM |
| CCCCCCCCCCCCC/C=C/[C@@H](O)[C@H](CO[C@@H]1O[C@H](CO)[C@@H](O[C@@H]2O[C@H](CO)[C@H](O)[C@H](O[C@]3(C(=O)O)C[C@H](O)[C@@H](NC(=O)Cc4ccc(C)cc4)C([C@@H](O)[C@H](O)CO)O3)[C@H]2O)[C@H](O)[C@H]1O)NC(=O)CCCCCCCCCCCCCCCCC (some centres not stated) | – | – | – | – | > 200 µM | – | – | > 200 µM | – | – | – | > 200 µM | – | – | > 200 µM |
| CCCCCCCCCCCCC/C=C/[C@@H](O)[C@H](CO[C@@H]1O[C@H](CO)[C@@H](O[C@@H]2O[C@H](CO)[C@H](O)[C@H](O[C@]3(C(=O)O)C[C@H](O)[C@@H](NC(=O)Cc4ccc(Br)cc4)C([C@@H](O)[C@H](O)CO)O3)[C@H]2O)[C@H](O)[C@H]1O)NC(=O)CCCCCCCCCCCCCCCCC (some centres not stated) | – | – | – | – | > 200 µM | – | – | > 200 µM | – | – | – | > 200 µM | – | – | > 200 µM |
